# Like-named read-outs stand apart in the source and are kept apart here.
# What was measured:
# Assay type in all cases: cell-based, human
# [1] = tested on: H1650; test: Non Small Cell Lung Cancer Proliferation Assay (Alamar Blue); conditions: for inhibition at 10 µM: Homo sapiens, NCI-H1650
# Method: (§1) Non Small Cell Lung Cancer cell lines are grown and maintained in Corning 175 cm2 flasks in RPMI 1640 media supplemented with 10% FBS, 1% antibiotic solution, 1% additional glutamine and pyruvate. These cells have a doubling time of 1-2 days. All cell types are adherent and grow in colonies. The cells should be kept at a density between 50,000 cells/mL-500,000 cells/mL to provide for optimum growth and adequate nutrition. The cell line should be maintained at 37° C. in a humidified atmosphere with 5% CO2 in a sterile cell culture incubator.
# (§2) To perform the assay, the Non Small Cell Lung Cancer lines are diluted in media and plated into 384 well microplates at a final density of 250 cells in 45 μL. To ensure consistency and minimal pipetting error, the cells are plated using the Multidrop 384 with the following settings: Rocker Switch set at 384, Volume 45 and Column 24.
# (§3) Low Controls for this assay are made by treating Non Small Cell Lung Cancer cells with 5 ul of staurosporine at 250 uM in 10% DMSO and 1% SDS. [Final concentration in this assay is 25 uM staurosporine in 1% DMSO and 0.1% SDS.]
# (§4) High Controls for this assay are made by treating Non Small Cell Lung Cancer cells with 5 ul of 10% DMSO. [Final concentration in this assay is 1% DMSO].
# (§5) The remaining wells of the 384 microplate may be treated with different compounds depending on the study. Important Note: All compounds for testing in this assay should be done at the final concentration of 1% DMSO.
# (§6) After addition, the cells are placed in cell culture incubator at 37° C. for 48 hours for complete treatment.
# (§7) After drug treatment, cytotoxicity is measured by Alamar Blue reduction. 5 μL of Alamar Blue is added to the 384 microplates using the Flexdrop.
# (§8) The cells are incubated for 48 hours at 37° C. to complete the Alamar Blue reduction.
# (§9) The final step in the assay is to measure the amount of Alamar Blue reduction. […] The Alamar Blue fluorescence is measured at an excitation of 530 nm and emission of 590 nm.
# (§10) For the NSCLC project, the cell based assay was screened against a small molecule library of approximately 200,000 compounds. The compound library is stored in our automated robotic freezer (Biophile) at −20° C. in 100% DMSO. Compound freeze and thaw cycles are kept to a minimum. Compounds for use are diluted into the appropriate concentration and plated into 384 well microplates using our custom built low volume 384-well head tool (TPS 384, Apricot Designs Inc., CA, USA). This assay was performed on a fully automated linear track robotic platform (CRS F3 Robot System, Thermo Electron Corp., Ontario, Canada) utilizing several integrated peripherals for plate handling, liquid dispensing, and readout detection. First, non-small cell lung cancer cell lines are dispensed into 384 well microplates (Corning #3712 Tissue Culture Treated Plate, Corning, N.Y., USA) with 5 μL of test compounds at 100 uM in 10% DMSO for screening studies or 1 mM in 10% DMSO to 50 nM in 10% DMSO for dose response studies. The microplates are then placed at 37° C. for 48 hours to complete treatment of cells with compounds. Next, 5 ul of alamar blue was added using a liquid dispenser (FlexDrop Precision Dispenser, Perkin Elmer, Mass., USA) and incubated for 48 hours at 37° C. The alamar blue prompt fluorescence was measured on Victor V (Victor^3 V, Perkin Elmer, Mass., USA) and output data files were loaded into ORIS (Oncology Research Informatics System, MSKCC, NY, USA), a screening data acquisition and analysis platform.
# [2] = tested on: H1975; test: as above; conditions: for inhibition at 10 µM: Homo sapiens, NCI-H1975
# Method: as §1, §2, §3, §4, §5, §6, §7, §8, §9, §10
# [3] = tested on: H2030; test: as above; conditions: for inhibition at 10 µM: Homo sapiens, NCI-H2030
# Method: (§11) These cells have a doubling time of 1-2 days. All cell types are adherent and grow in colonies. The cells should be kept at a density between 50,000 cells/mL-500,000 cells/mL to provide for optimum growth and adequate nutrition. The cell line should be maintained at 37° C. in a humidified atmosphere with 5% CO2 in a sterile cell culture incubator.
# (§12) To perform the assay, the Non Small Cell Lung Cancer lines are diluted in media and plated into 384 well microplates at a final density of 250 cells in 45 μL.
# as §4
# (§13) Important Note: All compounds for testing in this assay should be done at the final concentration of 1% DMSO.
# as §6
# (§14) After drug treatment, cytotoxicity is measured by Alamar Blue reduction.
# as §8, §9
# as §10, with “Compounds for use are diluted into the appropriate concentration and plated into 384 well microplates using our custom built low volume 384-well head tool (TPS 384, Apricot Designs Inc., CA, USA).” left out, “First, non-small cell lung cancer cell lines are dispensed into 384 well microplates (Corning #3712 Tissue Culture Treated Plate, Corning, N.Y., USA) with 5 μL of test compounds at 100 uM in 10% DMSO for screening studies or 1 mM in 10% DMSO to 50 nM in 10% DMSO for dose response studies.” left out
# [4] = tested on: H3255; test: as above; conditions: for inhibition at 10 µM: Homo sapiens, NCI-H3255
# Method: as §11, §12, §4, §13, §6, §14, §8, §9
# as §10, with “Compounds for use are diluted into the appropriate concentration and plated into 384 well microplates using our custom built low volume 384-well head tool (TPS 384, Apricot Designs Inc., CA, USA).” left out, “First, non-small cell lung cancer cell lines are dispensed into 384 well microplates (Corning #3712 Tissue Culture Treated Plate, Corning, N.Y., USA) with 5 μL of test compounds at 100 uM in 10% DMSO for screening studies or 1 mM in 10% DMSO to 50 nM in 10% DMSO for dose response studies.” left out
# [5] = tested on: 15 non small cell lung cancer lines representing various EGFR and KRAS mutations; test: Dose response studies against 15 NSCLC lines (alamar blue)
# Method: Dose response studies against 34 compounds from the pyridazinone and phenylfuran-carboxamide class were conducted. […] In addition, Tarceva was included in these dose response studies.
# The dose response studies were done with the following standard procedure. First, the cells were counted and dispensed at 250 cells/well into 384-well microplates with compound. The cells were incubated for 48 hours at 37 C to complete treatment, and then alamar blue was added for an additional 48 hours. Finally, alamar blue reduction was measured and the data was loaded into ORIS, our data screening acquisition platform.
# [6] = percentage inhibition, H1650, screening concentration of 10 μM compound in 1% DMSO (v/v), read-out: R1650 PRIMARY HTS [%]
# [7] = percentage inhibition, H1975, screening concentration of 10 μM compound in 1% DMSO (v/v), read-out: R1975 PRIMARY HTS [%]
# [8] = percentage inhibition, H2030, screening concentration of 10 μM compound in 1% DMSO (v/v), read-out: H2030 PRIMARY HTS [%]
# [9] = percentage inhibition, H3255, screening concentration of 10 μM compound in 1% DMSO (v/v), read-out: H3255 PRIMARY HTS [%]
# [10] = HPL1D (SV40-immortalized human lung epithelian cells, EGFR WT, KRAS WT), 12 point doubling dilution 10 uM to 5 nM, alamar blue, read-out: IC50 HPL1D
# [11] = Homo sapiens, read-out: IC50 H23
# [12] = Homo sapiens, read-out: IC50 H1118
# [13] = Homo sapiens, read-out: IC50 HPL1D
# [14] = Homo sapiens, read-out: IC50 PC9
# [15] = primary screening, 10 μM compound in 1% DMSO (v/v)
# [16] = Homo sapiens, PC9 (EGFR DclE746-A750, KRAS WT), 12 point doubling dilution 10 uM to 5 nM, alamar blue, read-out: IC50 PC9
smiles,measurement,setting,value
Cc1cccnc1NC(=O)c1ccc([N+](=O)[O-])o1 [compound 108321],inhibition at 10 µM,[1]; [6],38%
same,inhibition at 10 µM,[2]; [7],-7%
same,inhibition at 10 µM,[3]; [8],6%
same,inhibition at 10 µM,[4]; [9],2%
O=c1c(Br)c(Br)cnn1-c1ccccc1 [compound 257015],IC50,[5]; [10],300 nM
Cc1ccc(NC(=O)c2ccc([N+](=O)[O-])o2)cc1 [compound 98697],CONFIRMATION [%] 3255,"[4]; confirmation, percentage inhibition, 10 μM compound in 1% DMSO (v/v)",130%
same,IC50,[5]; [11],910 nM
same,IC50,[5]; [12],560 nM
same,IC50,[5]; [13],> 10000 nM
same,IC50,[5]; [14],2170 nM
Cc1cccc(NC(=O)c2ccc([N+](=O)[O-])o2)c1 [compound 71762],IC50,[5]; [10],> 10000 nM
Cc1c(Oc2ccccc2)nnn1-c1cnn(-c2ccccc2)c(=O)c1Br [compound 223337],percentage inhibition H1650,[1]; [15],13%
same,percentage inhibition H1975,[2]; [15],5%
same,percentage inhibition H2030,[3]; [15],−14%
same,percentage inhibition H3255,[4]; [15],61%
Cc1nc2cc(-n3ncc(Cl)c(Cl)c3=O)ccc2s1 [compound 267067],IC50,[5]; [16],> 10000 nM
O=c1c(Cl)c(Cl)cnn1-c1cccc(C(F)(F)F)c1 [compound 176729],IC50,[5]; [16],900 nM
O=c1c2c(cnn1-c1ccccc1)SC(c1ccccc1)S2 (stereo not shown) [compound 182826],inhibition at 10 µM,"[1]; primary screening, 10 μM compound in 1% DMSO (v/v), read-out: percentage inhibition H1650",13%
same,inhibition at 10 µM,"[2]; primary screening, 10 μM compound in 1% DMSO (v/v), read-out: percentage inhibition H1975",12%
same,inhibition at 10 µM,"[3]; primary screening, 10 μM compound in 1% DMSO (v/v), read-out: percentage inhibition H2030",-11%
same,inhibition at 10 µM,"[4]; primary screening, 10 μM compound in 1% DMSO (v/v), read-out: percentage inhibition H3255",-13%
O=C(Nc1ccc(NC(=O)c2ccco2)c(Cl)c1)c1ccccc1 [compound 76839],inhibition at 10 µM,[1]; [6],20%
same,inhibition at 10 µM,[2]; [7],3%
same,inhibition at 10 µM,[3]; [8],-6%
same,inhibition at 10 µM,[4]; [9],2%
Cc1cc(-n2ncc(Cl)c(Cl)c2=O)ccc1Cl [compound 267065],IC50,[5]; [16],> 10000 nM
O=c1c(Cl)c(Cl)cnn1-c1ccccc1 [compound 257014],IC50,[5]; [11],260 nM
same,IC50,[5]; [12],450 nM
same,IC50,[5]; [13],380 nM
same,IC50,[5]; [14],830 nM
Cc1cc(-n2ncc(Cl)c(Cl)c2=O)ccc1Br [compound 267064],IC50,[5]; [16],> 10000 nM

# Source: patent US20130131062A1, “PYRIDAZINONES AND FURAN-CONTAINING COMPOUNDS” (priority 2006, published 2013)
